ChEMBL document CHEMBL1201862, “PubChem BioAssay data set” (2004)
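A five-concentration, 48-hour dose response in 96-well plates underlies each endpoint, interpolated linearly between surrounding concentrations. Here, GI50 denotes the concentration required for 50% inhibition of growth.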 The source made the active and inactive calls. Rule as the data show it: active = GI50 up to about 1.1 µM and inactive = higher.

Experiments:
Assay in all cases: growth of human tumour cells (NCI), 48 h
HOP-62 = tested on: HOP-62
CCRF-CEM = tested on: CCRF-CEM
MDA-MB-231 = tested on: MDA-MB-231
OVCAR-8 = tested on: OVCAR-8
Hs-578T = tested on: Hs-578T
OVCAR-5 = tested on: OVCAR-5
SK-MEL-5 = tested on: SK-MEL-5
786-0 = tested on: 786-0
M14 = tested on: M14
HL-60 = tested on: HL-60
MDA-MB-435 = tested on: MDA-MB-435
SF-539 = tested on: SF-539
SK-MEL-2 = tested on: SK-MEL-2
KM12 = tested on: KM12
NCI-H226 = tested on: NCI-H226
SW-620 = tested on: SW-620
PC-3 = tested on: PC-3
MDA-N = tested on: MDA-N
HCC 2998 = tested on: HCC 2998
OVCAR-4 = tested on: OVCAR-4

SMILES	GI50 (HOP-62)	GI50 (CCRF-CEM)	GI50 (MDA-MB-231)	GI50 (OVCAR-8)	GI50 (Hs-578T)	GI50 (OVCAR-5)	GI50 (SK-MEL-5)	GI50 (786-0)	GI50 (M14)	GI50 (HL-60)	GI50 (MDA-MB-435)	GI50 (SF-539)	GI50 (SK-MEL-2)	GI50 (KM12)	GI50 (NCI-H226)	GI50 (SW-620)	GI50 (PC-3)	GI50 (MDA-N)	GI50 (HCC 2998)	GI50 (OVCAR-4)
CC1Oc2c(c(=O)oc3ccccc23)[C@@]1(C)CC1C[C@H](C)C(=O)O1 (stereo not given in full)	47.6 µM (inactive)	5.96 µM (inactive)	31.1 µM (inactive)	30.5 µM (inactive)	30.6 µM (inactive)	83.8 µM (inactive)	38.8 µM (inactive)	16.4 µM (inactive)	20.3 µM (inactive)	27.5 µM (inactive)	21.9 µM (inactive)	25.2 µM (inactive)	25.9 µM (inactive)	44.6 µM (inactive)	> 100 µM (inactive)	26.9 µM (inactive)	40.8 µM (inactive)	19.9 µM (inactive)	23.2 µM (inactive)	
CC1C(c2ccccc2O)c2cc3c(cc2OC1N1CCCC1)OCO3 (stereo not given)	21.4 µM (inactive)	23.8 µM (inactive)	27.8 µM (inactive)	11.5 µM (inactive)	18.2 µM (inactive)	32.2 µM (inactive)	39.2 µM (inactive)	20 µM (inactive)	17.9 µM (inactive)	19.2 µM (inactive)	26.9 µM (inactive)	24.9 µM (inactive)	23.4 µM (inactive)	33.5 µM (inactive)	27.9 µM (inactive)	20.8 µM (inactive)	28.1 µM (inactive)	18.8 µM (inactive)	40.6 µM (inactive)	
O=C1/C(=C/c2ccncc2)C(n2cccc2)c2c(Br)sc(Br)c21 (stereo not given)	3.03 µM (inactive)	0.671 µM (active)	2.25 µM (inactive)	2.28 µM (inactive)	2.77 µM (inactive)	14.3 µM (inactive)	13.7 µM (inactive)	3.41 µM (inactive)	0.263 µM (active)	1.53 µM (inactive)	2.11 µM (inactive)	3.87 µM (inactive)	2.46 µM (inactive)	11.3 µM (inactive)		1.57 µM (inactive)	4.41 µM (inactive)	2.52 µM (inactive)	1.88 µM (inactive)	
CC12CCC(C(Br)(Br)C1=O)C2(C)C (stereo not given)	6 µM (inactive)	< 0.0166 µM (active)	0.104 µM (active)	1.69 µM (inactive)	0.251 µM (active)	2.28 µM (inactive)	0.348 µM (active)	0.0545 µM (active)	0.125 µM (active)	< 0.0148 µM (active)	0.0942 µM (active)	2.94 µM (inactive)		2.77 µM (inactive)	2.03 µM (inactive)	< 0.0476 µM (active)	1.07 µM (active)	0.196 µM (active)	2.28 µM (inactive)	0.333 µM (active)
CNC(=O)CN(C)C(=O)CCC(=O)N(C)C	> 100 µM (inactive)	> 100 µM (inactive)	> 100 µM (inactive)	> 100 µM (inactive)	> 100 µM (inactive)	> 100 µM (inactive)	> 100 µM (inactive)	> 100 µM (inactive)	> 100 µM (inactive)	> 100 µM (inactive)	> 100 µM (inactive)	> 100 µM (inactive)	> 100 µM (inactive)	> 100 µM (inactive)	> 100 µM (inactive)	> 100 µM (inactive)	> 100 µM (inactive)	> 100 µM (inactive)	> 100 µM (inactive)	
CCN(CC)C(=S)SNc1ccc(S(N)(=O)=O)cc1	69.8 µM (inactive)		60.5 µM (inactive)	23.3 µM (inactive)	> 100 µM (inactive)	28.4 µM (inactive)	30.5 µM (inactive)	29.9 µM (inactive)	24.5 µM (inactive)	0.064 µM (active)	> 57.7 µM (inactive)	> 76.6 µM (inactive)	> 63.1 µM (inactive)	> 71.6 µM (inactive)	> 100 µM (inactive)	13.7 µM (inactive)	47.8 µM (inactive)	69.3 µM (inactive)	> 100 µM (inactive)	> 83 µM (inactive)
CO/C(N)=C(C#N)/N=C/c1ccco1	> 100 µM (inactive)	67.8 µM (inactive)	> 100 µM (inactive)	> 100 µM (inactive)	> 100 µM (inactive)	> 100 µM (inactive)	> 100 µM (inactive)	> 100 µM (inactive)	> 100 µM (inactive)	> 100 µM (inactive)	> 100 µM (inactive)		> 100 µM (inactive)	> 100 µM (inactive)	> 100 µM (inactive)	> 100 µM (inactive)	> 100 µM (inactive)	> 100 µM (inactive)	> 100 µM (inactive)	> 100 µM (inactive)
O=C(NC(=O)c1cc(-c2ccccc2)n[nH]1)c1ccccc1	64.9 µM (inactive)	> 100 µM (inactive)	> 100 µM (inactive)	> 100 µM (inactive)	> 100 µM (inactive)	> 100 µM (inactive)	> 100 µM (inactive)	> 100 µM (inactive)	> 100 µM (inactive)		> 100 µM (inactive)	> 100 µM (inactive)	> 100 µM (inactive)	> 100 µM (inactive)	> 100 µM (inactive)	> 100 µM (inactive)	> 100 µM (inactive)	> 100 µM (inactive)	> 100 µM (inactive)	> 100 µM (inactive)
Nc1nc(N)c2ncn(Cc3c(Cl)cccc3Cl)c2n1	> 100 µM (inactive)	> 100 µM (inactive)	> 100 µM (inactive)	> 100 µM (inactive)	> 100 µM (inactive)	> 100 µM (inactive)	> 100 µM (inactive)	> 100 µM (inactive)	> 100 µM (inactive)		> 100 µM (inactive)	> 100 µM (inactive)	> 100 µM (inactive)	> 100 µM (inactive)	> 100 µM (inactive)	> 100 µM (inactive)	> 100 µM (inactive)	> 100 µM (inactive)	> 100 µM (inactive)	> 100 µM (inactive)
C[C@]12CC[C@@H]3c4ccc(O)cc4CC[C@H]3[C@@H]1C/C(=C\c1ccncc1)[C@@H]2O	14.8 µM (inactive)	9.75 µM (inactive)	10.1 µM (inactive)	11.4 µM (inactive)	4.42 µM (inactive)	28.6 µM (inactive)	4.18 µM (inactive)	14.3 µM (inactive)	20.6 µM (inactive)	8.51 µM (inactive)	2.92 µM (inactive)		11.4 µM (inactive)	5.98 µM (inactive)	10.7 µM (inactive)	9.27 µM (inactive)	10.4 µM (inactive)	3.99 µM (inactive)	7.96 µM (inactive)	14.8 µM (inactive)
Brc1ccc(-c2[nH]c3ccccc3c2/C=N\Nc2ccc(-c3nc4ccccc4[nH]3)cc2)cc1	< 0.01 µM (active)	< 0.01 µM (active)	< 0.01 µM (active)	< 0.01 µM (active)	< 0.01 µM (active)	< 0.0448 µM (active)	< 0.01 µM (active)	< 0.01 µM (active)	< 0.01 µM (active)	< 0.01 µM (active)	< 0.01 µM (active)	< 0.01 µM (active)	< 0.0139 µM (active)	< 0.01 µM (active)	< 0.01 µM (active)	< 0.01 µM (active)	< 0.01 µM (active)	< 0.01 µM (active)	< 0.01 µM (active)	
CO[C@@H]1C[C@H]2[C@@H]3CC[C@H]([C@@H](C)COC(C)=O)[C@@]3(C)CC[C@@H]2[C@@]2(C)CC[C@H]3C[C@]312	17.7 µM (inactive)	14.9 µM (inactive)	11.9 µM (inactive)	12.2 µM (inactive)	18.5 µM (inactive)	11.5 µM (inactive)	3.61 µM (inactive)	16.5 µM (inactive)	16.9 µM (inactive)	3.89 µM (inactive)	15.1 µM (inactive)	17.5 µM (inactive)		11.1 µM (inactive)	17.9 µM (inactive)	11.8 µM (inactive)	15.2 µM (inactive)	16.9 µM (inactive)	15.1 µM (inactive)	22 µM (inactive)
[O-][N+](CCO)(CCO)c1ncnc2[nH]cnc12	> 100 µM (inactive)	> 100 µM (inactive)	> 100 µM (inactive)	> 100 µM (inactive)	> 100 µM (inactive)	> 100 µM (inactive)	> 100 µM (inactive)	> 100 µM (inactive)	> 100 µM (inactive)		> 100 µM (inactive)		> 100 µM (inactive)	> 100 µM (inactive)	> 100 µM (inactive)	> 100 µM (inactive)	> 100 µM (inactive)	> 100 µM (inactive)	> 100 µM (inactive)	> 100 µM (inactive)
O=C(C[N+]1(c2ccccc2)CCOCC1)c1ccccc1	> 100 µM (inactive)		> 100 µM (inactive)	> 100 µM (inactive)	> 100 µM (inactive)	> 100 µM (inactive)	> 100 µM (inactive)	60.5 µM (inactive)	> 100 µM (inactive)		> 100 µM (inactive)		> 100 µM (inactive)	> 100 µM (inactive)	> 100 µM (inactive)		> 100 µM (inactive)	> 100 µM (inactive)	> 100 µM (inactive)	> 100 µM (inactive)
COC(=O)CCNC(=O)OCc1ccccc1	> 100 µM (inactive)	> 100 µM (inactive)	> 100 µM (inactive)	> 100 µM (inactive)	> 100 µM (inactive)	> 100 µM (inactive)	> 100 µM (inactive)	> 100 µM (inactive)	> 100 µM (inactive)	> 100 µM (inactive)	> 100 µM (inactive)	> 100 µM (inactive)	> 100 µM (inactive)	> 100 µM (inactive)	> 100 µM (inactive)	> 100 µM (inactive)	> 100 µM (inactive)	> 100 µM (inactive)	> 100 µM (inactive)	
